Experimental data as given in patent US20170121678A1, “METHODS AND COMPOSITIONS TO STABILIZE DIFFERENT STEM CELL STATES” (UNIVERSITY OF WASHINGTON - CENTER COMMERCIALIZATION, priority 2014, published 2017).
Entries after “also recorded” stand apart in the source; their conditions may differ.

Key:
Type in all cases: cell-based, human
[1] = test system: Wnt signaling (BAR reporter) in Elf1 cells; assay: BAR Wnt reporter activity in Elf1 reporter cells; settings: for BAR reporter activity: naïve Elf1 cells, 72 h, IWP2 2 μM, XAV939 5 μM, siRNA 10 nM
Protocol: Elf1 cells grown in naïve media (2iL or 2iLIF) or primed media (AF) were infected with BAR reporter lentivirus and seeded onto MATRIGEL®-coated plates in MEF-CM with 10 μM Y-27632, and 1 μM Thiazovivin (ROCK inhibitors, Tocris). Transduced Elf cells were cultured for a week on MATRIGEL®, then passaged onto MEF plates for further selection and expansion. Elf1 naïve reporter cells were harvested as single cells via TRYPLE™ Express and FACS sorted for the population with both Venus and DsRed (Discosoma sp. Red fluorescent protein) positive signals. DsRed positive colonies of Elf1 primed reporter cells were manually dissected, transferred onto MEF plates, and the same positive selection was repeated one more round or two depending on the selection efficiency. Negative colonies were manually removed as a negative selection. Once the DsRed positive lines were isolated and stable lines established, the primed Elf1 reporter cells were passaged with dispase.
(§1) Wnt secretion and signaling were inhibited in naïve hESCs (Elf1, WIN1) by treatment with IWP2 (2 μM, Torcis) or XAV939 (5 μM, Sigma). Wnt pathway was activated in primed Elf1 AF reporter cells using a GSK3 inhibitor, CHIR99021 (72 hr, 10 μM, AxonMedChem). Both IWP2 and CHIR99021 were reconstituted in DMSO.
L and L-Wnt3A cells (ATCC) were cultured in 15 cm plates in 10% FBS/DMEM media until 90% confluent. Medium was collected every 48 hr for three batches. Biological activity of secreted Wnt3A in the individual batches of the conditional medium was confirmed in 293T-BAR reporter cells, then batches were pooled and filtered. Primed (Elf1 AF) reporter cells were grown on MATRIGEL® with 50% LCM or 50% Wnt3A-CM for 3 days prior taking bright field and fluorescent pictures.
Naïve Elf1 2iLIF cells were transfected in MATRIGEL® coated plates in MEF-CM supplemented with ROCK inhibitors (Torcis) using LIPOFECTAMINE™ RNAiMAX™ (Life Technologies). siRNA targeting NNMT (Hs-NNMT-8) was purchased from Qiagen as FLEXITUBE® siRNA premix, and siRNA targeting luciferase was used as control. siRNAs against NNMT and luciferase were used at 50 nM final concentration. Proteins and RNAs were extracted 72 hr after transfection. siRNA targeting beta-catenin (Invitrogen, CTNNBI, SILENCER® Select ID s437) and SILENCER® Select Negative Control 1 (Invitrogen) were transfected in naïve Elf1 2iLIF cells at 10 nM final concentration following a reverse transfection protocol. Bright field and fluorescence images were taken after 3 days. The efficacy of NNMT and beta-catenin siRNAs was confirmed by qPCR analysis.

[2] = test system: histone methylation marks (H3K27me3, H3K9me3, H3K4me3, H3K9/K14Ac) in hESCs; assay: Western blot analysis of histone marks; settings: 1MNA 0.5 mM, 72 hr, primed hESCs (Elf1 AF), low L-methionine media
Protocol: Cellular extracts were prepared using a lysis buffer containing 20 mM Tris HCl (pH 7.5), 150 mM NaCl, 15% glycerol, 1% Triton, 25 mM (3-glycerolphosphate, 50 mM NaF, 10 mM sodium pyrophosphate, orthovanadate, PMSF), protease inhibitor cocktail (Roche) and 2% SDS. 25 U of BENZONASE® nuclease (EMD Chemicals) and 20 mM of DTT were added to the lysis buffer right before use. Protein concentrations were then determined by the method of Bradford. Fifteen micrograms of protein extracts were loaded, separated by 4-20% SDS-PAGE, and transferred to polyvinylidene difluoride membranes (Hybond-N+, Amersham Pharmacia Biotech). Membranes were blocked with 5% nonfat dry milk for 60 min at room temperature, and incubated overnight at 4° C. with primary antibody. […]
Naïve hESCs (Elf1 2iLIF) grown on MATRIGEL® were treated with 100 μM of STAT3 inhibitor (Selleckchem) for 6 hr or 24 hr and analyzed for methylation marks by Western blot and ChIP Seq. […]
(§2) Naïve Elf1 2iLIF cells were transfected in MATRIGEL® coated plates in MEF-CM supplemented with ROCK inhibitors (Torcis) using LIPOFECTAMINE™ RNAiMAX™ (Life Technologies). siRNA targeting NNMT (Hs-NNMT-8) was purchased from Qiagen as FLEXITUBE® siRNA premix, and siRNA targeting luciferase was used as control. siRNAs against NNMT and luciferase were used at 50 nM final concentration. […] Bright field and fluorescence images were taken after 3 days. […]

[3] = test system: NNMT, miR-372, miR-10a expression in naïve hESCs (Elf1); assay: qPCR analysis of NNMT and microRNA expression; settings: IWP2 2 μM, 72 hr
Protocol: Total RNA was extracted using TRIZOL® and subsequently analyzed by SYBR® green qPCR with the 7300 real time PCR system (Applied Biosystems) as well as TAQMAN® qPCR (Applied Biosystems).
qPCR of miRNAs was conducted using AQMAN®miRNA assays (Applied Biosystems). Raw Ct (threshold cycle) values for miRNAs were normalized to RNU66 (endogenous snoRNA, internal control). Linear expression values for all qPCR experiments were calculated using the 2 (−ΔCt) method. P-values were calculated using a student's t-test (*p<0.05, **p<0.01, ***p<0.001).
as §1, §2

naïve hESCs (WIN1, Elf1) = assay: Seahorse mitostress protocol, OCR changes in response to FCCP; settings: for OCR changes in response to FCCP: naïve hESCs (WIN1)
Protocol: Naïve and primed ESCs were seeded in their specific growth media onto 96-well Seahorse plates (Seahorse Bioscience) pre-coated with MATRIGEL® at 25×10^4 or 40×10^4 cells/well. Culture media were exchanged for base media (unbuffered DMEM (Sigma D5030) supplemented with sodium pyruvate (Gibco, 1 mM) and with 25 mM glucose (for mito stress assay), 25 mM glucose and 50 μM carnitine (for palmitate assay), or 2 mM glutamine (for glucose stress assay)) 1 hr prior to the assay and for the duration of the measurement. Substrates and selective inhibitors were added during the measurements to achieve final concentrations of glucose (2.5 mM), […] (FCCP, 300 nM-500 nM), oligomycin ([…]), antimycin (2.5 μM), rotenone (2.5 μM), palmitate (50 μM in BSA), BSA (bovine serum albumin) and ETO (50 μM).
The mitochondrial stress protocol starts with the measurement of baseline oxygen consumption rate (OCR) and extracellular acidification rate (ECAR) followed by measurement of OCR and ECAR changes in response to addition of oligomycin, FCCP and finally antimycin and rotenone.
Then palmitate assay starts with the measurement of baseline OCR followed by measurement of OCR changes in response to injection of palmitate or BSA (in negative controls) and ETO. The OCR and ECAR values were further normalized to the number of cells present in each well, quantified by Hoechst staining (H033342; Sigma-Aldrich) as measured using fluorescence at 355 nm excitation and 460 nm emission (ENVISION® 2104 Multilabel reader, Perkin Elmer). Changes in OCR and ECAR in response to substrates and inhibitors addition were defined as the maximal change after the chemical addition compared to the last OCR value before the addition.
as §1
WIN1 and Elf1 cells were seeded in Seahorse plates in naïve (WIN1, Elf1) or primed (WIN1 AF) conditions with or without Kynurenine (100 μM, Sigma) and mitostress protocol was performed 2 days later.
WIN1 cells were seeded in Seahorse plates 2 days prior change of media with media without L-methionine (Sigma 0422 supplemented with 0.584 gm/L L-glutamine) and addition of SAM (500 μM). Five hours later Seahorse mitostress protocol was performed.

[4] = primed hESCs (Elf1 AF), 3 days, CHIR99021 10 μM, 50% Wnt3A-CM

## Oc1nc(-c2ccc(C(F)(F)F)cc2)nc2c1CSCC2 [XAV939]
[1]
  BAR reporter activity: dramatically downregulated; also recorded: inhibit

## Cc1c[nH]c(-c2cnc(NCCNc3ccc(C#N)cn3)nc2-c2ccc(Cl)cc2Cl)n1 [CHIR99021]
[1]; [4]
  BAR reporter: re-activation
  differentiation: induces differentiation

## C[n+]1cccc(C(N)=O)c1 [1MNA, 1-methylnicotinamide]
[2]
  H3K27me3 mark: reduces
[2]; listed as 1 MNA
  H3K27me3 mark: decreased

## Cc1ccc2nc(NC(=O)CSc3nc4c(c(=O)n3-c3ccccc3)SCC4)sc2c1 [IWP2]
[3]
  NNMT expression (qPCR): downregulates
  miR-372 expression (qPCR): downregulates
[1]
  BAR reporter activity: represses; also recorded: inhibit
naïve hESCs (WIN1, Elf1); IWP2 2 μM, 48 hr, naïve hESCs (Elf1, WIN1) and transitioning to primed (WIN1 AF)
  OCR changes after FCCP: decreases

## Nc1ccccc1C(=O)CC(N)C(=O)O (stereo not shown) [kynurenine]
naïve hESCs (WIN1, Elf1); kynurenine 100 μM, 2 days
  OCR changes in response to FCCP: reduced
naïve hESCs (WIN1, Elf1); kynurenine added to the media (FIG. 4E)
  naïve to primed hESC metabolic switch: accelerated

## C[S+](CC[C@H](N)C(=O)[O-])C[C@H]1O[C@@H](n2cnc3c(N)ncnc32)[C@H](O)[C@@H]1O (stereo partly shown) [SAM, S-adenosyl methionine]
naïve hESCs (WIN1, Elf1); SAM 500 μM, 5 hr, media without methionine
  OCR changes in response to FCCP: reduces
naïve hESCs (WIN1, Elf1); high levels of SAM (FIG. 4K-4L)
  metabolic profile in naïve hESCs: induce a primed-like metabolic profile
